In US6019997A, “Hydroalcoholic compositions for transdermal penetration of pharmaceutical agents” (priority 1997, dated 2000):

What was measured:
Type in all cases: physicochemical
[1] = Viscosity (Brookfield LVDV-I+ viscometer, 23° C.); conditions: result in words
Experimental: In the following Examples (except where indicated) viscosity was measured at 23° C. at ambient pressure using a Brookfield LVDV-I^+ viscometer equipped with a model D Brookfield heliopath and T spindles B-F. The spindle and speed was chosen for each particular sample such that the viscometer was operating in the middle of its range. All samples were allowed to equilibrate at 23° C. for 24 hours prior to measurement. Preferably the viscosity is taken at the lowest speed possible while staying within 20-80% of the viscometer range and more preferably between 30-70% of the range. In all cases the sample size and container geometry was chosen to ensure that there were no wall effects. By "wall effects" it is meant the viscosity value is not affected by the container and is essentially equivalent to the viscosity taken in an infinitely large container. For this reason lower viscosity samples required a larger sample size to accommodate the larger spindles. The following table outlines preferred spindles for various sample viscosities.
The viscosity of each sample was taken as the highest relatively stable reading achieved on the first path the spindle traversed using the heliopath adapter.

[2] = Melt temperature (Tm); conditions: result in words
Experimental: The melt temperature was measured by placing approximately 15 grams sample in a 25 cc sealed glass vial and placing the vial in a water bath. The temperature of the bath was increased periodically in discrete increments and the contents checked after approximately 1 hour at a given temperature. The melt temperature was taken as the temperature at which the mixture became very low in viscosity.

[3] = Emulsion stability; conditions: concentrations below about 1% by weight

Row | Molecule | effect of emollient on viscoelasticity of certain emulsifier systems [1] | effect of emollient on melt temperature of the composition [2] | phase separation when heated above the melt temperature [3]
1 | CCCCCCCCCCCCCCCC [hexadecane] | can increase the viscoelasticity of certain emulsifier systems | – | –
2 | CCCCCCCCCCCCOCCOCCOCCOCCO [laureth-4] | – | tends to decrease the melt temperature of the composition | does not phase out
3 | trioctyldodecyl citrate | – | significantly decrease the melt temperature of some systems | –
